System: Acinetobacter baumannii strains
Test: Antibiotic susceptibility test (CLSI disk diffusion test method, read per CLSI 2016)
Type: cell-based
Procedure: (§1) Strain identification was performed using a kit such as AT 32 GN system (bioMérieux, Marcy l'Etoile, France). […] In Table 2 below, S, I, and R are the results obtained by evaluating susceptibility to the antibacterial agents, in which ‘S’ means susceptible, ‘I’ means intermediate, and ‘R’ means resistant.
as §1, with “as ATB” for “as AT”, “system (bioMédrieux,” for “system (bioMérieux,”, “Table 6” for “Table 2”
as §1, with “as ATB” for “as AT”, “Table 10” for “Table 2”, “susceptible, T” for “susceptible, ‘I’”

## C[C@@H](O)[C@H]1C(=O)N2C(C(=O)O)=C(S[C@@H]3CN[C@H](C(=O)N(C)C)C3)[C@H](C)[C@H]12 [Meropenem, meropenem]
Host strain YMC14/01/C29
  antibiotic susceptibility class: R
Host strain YMC14/01/IP122
  antibiotic susceptibility class: R
Host strain YMC14/01/L8
  antibiotic susceptibility class: R
Host strain YMC14/01/P31
  antibiotic susceptibility class: R
Host strain YMC14/01/P117
  antibiotic susceptibility class: R
Host strain YMC14/01/P224
  antibiotic susceptibility class: R
Host strain YMC14/01/P727
  antibiotic susceptibility class: R
Host strain YMC14/01/P728
  antibiotic susceptibility class: R
Host strain YMC14/01/R130
  antibiotic susceptibility class: R
Host strain YMC14/01/R160
  antibiotic susceptibility class: R
Host strain YMC14/01/R198
  antibiotic susceptibility class: R
Host strain YMC14/01/R257
  antibiotic susceptibility class: R
Host strain YMC14/01/R270
  antibiotic susceptibility class: R
Host strain YMC14/01/R324
  antibiotic susceptibility class: R
Host strain YMC14/01/R443
  antibiotic susceptibility class: R
Host strain YMC14/01/R451
  antibiotic susceptibility class: R
Host strain YMC14/01/R560
  antibiotic susceptibility class: R
Host strain YMC14/01/R617
  antibiotic susceptibility class: R
Host strain YMC14/01/R671
  antibiotic susceptibility class: R
Host strain YMC14/01/R732
  antibiotic susceptibility class: R
Host strain YMC14/01/R767
  antibiotic susceptibility class: R
Host strain YMC14/01/R904
  antibiotic susceptibility class: R
Host strain YMC14/01/R905
  antibiotic susceptibility class: R
Host strain YMC14/01/R921
  antibiotic susceptibility class: R
Host strain YMC14/01/R941
  antibiotic susceptibility class: R
Host strain YMC14/01/R958
  antibiotic susceptibility class: R
Host strain YMC14/01/R1006
  antibiotic susceptibility class: R
Host strain YMC14/01/R1199
  antibiotic susceptibility class: R
Host strain YMC14/01/R1659
  antibiotic susceptibility class: R
Host strain YMC14/01/R1722
  antibiotic susceptibility class: R
Host strain YMC14/01/R1752
  antibiotic susceptibility class: R
Host strain YMC14/01/R2429
  antibiotic susceptibility class: R
Host strain YMC14/01/R2572
  antibiotic susceptibility class: R
Host strain YMC14/01/R2855
  antibiotic susceptibility class: R
Host strain YMC14/01/R2945
  antibiotic susceptibility class: R
Host strain YMC14/01/R3007
  antibiotic susceptibility class: R
Host strain YMC14/01/R3129
  antibiotic susceptibility class: R
Host strain YMC14/01/R3317
  antibiotic susceptibility class: R
Host strain YMC14/01/R3474
  antibiotic susceptibility class: R
Host strain YMC14/01/R3574
  antibiotic susceptibility class: R
Host strain YMC14/01/U313
  antibiotic susceptibility class: R
Host strain YMC14/01/U318
  antibiotic susceptibility class: R
Host strain YMC14/02/L18
  antibiotic susceptibility class: R
Host strain YMC14/02/P47
  antibiotic susceptibility class: R
Host strain YMC14/02/R1860
  antibiotic susceptibility class: R
Host strain YMC14/02/R2417
  antibiotic susceptibility class: R
Host strain YMC14/02/R2599
  antibiotic susceptibility class: R
Host strain YMC14/02/R2668
  antibiotic susceptibility class: R
Host strain YMC14/02/R2758
  antibiotic susceptibility class: R
Host strain YMC14/02/R2781
  antibiotic susceptibility class: R
Host strain YMC14/02/R3106
  antibiotic susceptibility class: R
Host strain YMC14/02/R3419
  antibiotic susceptibility class: R
Host strain YMC14/02/U1607
  antibiotic susceptibility class: R
Host strain YMC14/03/L9
  antibiotic susceptibility class: R
Host strain YMC14/03/P471
  antibiotic susceptibility class: R
Host strain YMC14/03/R122
  antibiotic susceptibility class: R
Host strain YMC14/03/R217
  antibiotic susceptibility class: R
Host strain YMC14/03/R380
  antibiotic susceptibility class: R
Host strain YMC14/03/R618
  antibiotic susceptibility class: R
Host strain YMC14/03/R2144
  antibiotic susceptibility class: R
Host strain YMC14/03/U4616
  antibiotic susceptibility class: R
Host strain YMC14/04/R1078
  antibiotic susceptibility class: R
Host strain YMC14/04/R1080
  antibiotic susceptibility class: R
Host strain YMC14/06/R2359
  antibiotic susceptibility S/I/R: R
  susceptibility category (S/I/R): R
Host strain YMC14/08/R1169
  antibiotic susceptibility S/I/R: R
  susceptibility category (S/I/R): R
Host strain YMC14/08/T90
  antibiotic susceptibility S/I/R: R
  susceptibility category (S/I/R): R
Host strain YMC15/02/R436
  antibiotic susceptibility S/I/R: R
  susceptibility category (S/I/R): R
Host strain YMC15/02/T28
  antibiotic susceptibility S/I/R: R
  susceptibility category (S/I/R): R
Host strain YMC15/03/R1604
  antibiotic susceptibility S/I/R: R
  susceptibility category (S/I/R): R
Host strain YMC15/09/R1869
  antibiotic susceptibility S/I/R: R
  susceptibility category (S/I/R): R
Host strain YMC16/01/P11
  antibiotic susceptibility S/I/R: R
  susceptibility category (S/I/R): R
Host strain YMC16/01/R123
  antibiotic susceptibility S/I/R: R
  susceptibility category (S/I/R): R
Host strain YMC16/01/R198
  antibiotic susceptibility S/I/R: R
  susceptibility category (S/I/R): R
Host strain YMC16/01/R353
  antibiotic susceptibility S/I/R: R
  susceptibility category (S/I/R): R
Host strain YMC16/01/R380
  antibiotic susceptibility S/I/R: R
  susceptibility category (S/I/R): R
Host strain YMC16/01/R397
  antibiotic susceptibility S/I/R: R
  susceptibility category (S/I/R): R
Host strain YMC16/01/R405
  antibiotic susceptibility S/I/R: R
  susceptibility category (S/I/R): R
Host strain YMC16/03/R4461
  antibiotic susceptibility S/I/R: R
  susceptibility category (S/I/R): R
Host strain YMC16/05/R2210
  antibiotic susceptibility S/I/R: R
  susceptibility category (S/I/R): R
Host strain YMC16/07/R2512
  antibiotic susceptibility S/I/R: R
  susceptibility category (S/I/R): R
Host strain YMC16/09/R2471
  antibiotic susceptibility S/I/R: R
  susceptibility category (S/I/R): R
Host strain YMC16/10/R2537
  antibiotic susceptibility S/I/R: R
  susceptibility category (S/I/R): R
Host strain YMC16/12/B11422
  antibiotic susceptibility S/I/R: R
  susceptibility category (S/I/R): R
Host strain YMC16/12/B11449
  antibiotic susceptibility S/I/R: R
  susceptibility category (S/I/R): R
Host strain YMC16/12/B13325
  antibiotic susceptibility S/I/R: R
  susceptibility category (S/I/R): R
Host strain YMC16/12/P503
  antibiotic susceptibility S/I/R: R
  susceptibility category (S/I/R): R
Host strain YMC16/12/R4637
  antibiotic susceptibility S/I/R: R
  susceptibility category (S/I/R): R
Host strain YMC17/01/B8053
  antibiotic susceptibility S/I/R: R
  susceptibility category (S/I/R): R
Host strain YMC17/01/B10087
  antibiotic susceptibility S/I/R: R
  susceptibility category (S/I/R): R
Host strain YMC17/01/B12075
  antibiotic susceptibility S/I/R: R
  susceptibility category (S/I/R): R
Host strain YMC17/01/B13454
  antibiotic susceptibility S/I/R: R
  susceptibility category (S/I/R): R
Host strain YMC17/01/P518
  antibiotic susceptibility S/I/R: R
  susceptibility category (S/I/R): R
Host strain YMC17/01/R2812
  antibiotic susceptibility S/I/R: R
  susceptibility category (S/I/R): R
Host strain YMC17/02/B14
  antibiotic susceptibility S/I/R: R
  susceptibility category (S/I/R): R
Host strain YMC17/02/B87
  antibiotic susceptibility S/I/R: R
  susceptibility category (S/I/R): R
Host strain YMC17/02/B721
  antibiotic susceptibility S/I/R: R
  susceptibility category (S/I/R): R
Host strain YMC17/02/B4039
  antibiotic susceptibility S/I/R: R
  susceptibility category (S/I/R): R
Host strain YMC17/02/B4520
  antibiotic susceptibility S/I/R: R
  susceptibility category (S/I/R): R
Host strain YMC17/02/B4864
  antibiotic susceptibility S/I/R: S
  susceptibility category (S/I/R): S
Host strain YMC17/02/B8414
  antibiotic susceptibility S/I/R: R
  susceptibility category (S/I/R): R
Host strain YMC17/02/P523
  antibiotic susceptibility S/I/R: R
  susceptibility category (S/I/R): R
Host strain YMC17/02/R541
  antibiotic susceptibility S/I/R: R
  susceptibility category (S/I/R): R
Host strain YMC17/02/R2392
  antibiotic susceptibility S/I/R: R
  susceptibility category (S/I/R): R
Host strain YMC17/03/B4730
  antibiotic susceptibility S/I/R: R
  susceptibility category (S/I/R): R
Host strain YMC17/03/B5000
  antibiotic susceptibility S/I/R: R
  susceptibility category (S/I/R): R
Host strain YMC17/03/P971
  antibiotic susceptibility S/I/R: R
  susceptibility category (S/I/R): R
Host strain YMC17/03/R348
  antibiotic susceptibility S/I/R: R
  susceptibility category (S/I/R): R
Host strain YMC17/03/R585
  antibiotic susceptibility S/I/R: R
  susceptibility category (S/I/R): R
Host strain YMC17/03/R1888
  antibiotic susceptibility S/I/R: R
  susceptibility category (S/I/R): R
Host strain YMC17/03/R3279
  antibiotic susceptibility S/I/R: R
  susceptibility category (S/I/R): R
Host strain YMC17/03/R4077
  antibiotic susceptibility S/I/R: R
  susceptibility category (S/I/R): R
Host strain YMC17/03/R4607
  antibiotic susceptibility S/I/R: R
  susceptibility category (S/I/R): R
Host strain YMC17/04/R488
  antibiotic susceptibility S/I/R: R
  susceptibility category (S/I/R): R
Host strain YMC17/04/R640
  antibiotic susceptibility S/I/R: R
  susceptibility category (S/I/R): R
Host strain YMC/17/05/R1095
  antibiotic susceptibility S/I/R: R
  susceptibility category (S/I/R): R

Source: patent publication US20240000872A1, “NOVEL BACTERIOPHAGE THAT LYSES ACINETOBACTER GENUS BACTERIA HAVING RESISTANCE TO ANTIBIOTICS” (priority 2020, published 2024)
